According to patent US20250017940A1, “SELECTIVE PEPTIDOMIMETIC MODULATORS OF CAV2.2 (N-TYPE) VOLTAGE-GATED CALCIUM CHANNELS AND USES THEREOF” (New York University, priority 2023, published 2025):

How the values were obtained:
[1] = target: T1, Cav2.3 (R-type) calcium channels (Rattus norvegicus, UniProt Q07652); assay: Whole-cell patch-clamp, isolated R-type Ca2+ currents in DRG neurons; format: cell-based
T1 construct: Recordings were obtained from acutely dissociated DRG neurons; endogenous in cells; host or cells: acutely dissociated rat DRG neurons
T1 sequence (Q07652 whole entry): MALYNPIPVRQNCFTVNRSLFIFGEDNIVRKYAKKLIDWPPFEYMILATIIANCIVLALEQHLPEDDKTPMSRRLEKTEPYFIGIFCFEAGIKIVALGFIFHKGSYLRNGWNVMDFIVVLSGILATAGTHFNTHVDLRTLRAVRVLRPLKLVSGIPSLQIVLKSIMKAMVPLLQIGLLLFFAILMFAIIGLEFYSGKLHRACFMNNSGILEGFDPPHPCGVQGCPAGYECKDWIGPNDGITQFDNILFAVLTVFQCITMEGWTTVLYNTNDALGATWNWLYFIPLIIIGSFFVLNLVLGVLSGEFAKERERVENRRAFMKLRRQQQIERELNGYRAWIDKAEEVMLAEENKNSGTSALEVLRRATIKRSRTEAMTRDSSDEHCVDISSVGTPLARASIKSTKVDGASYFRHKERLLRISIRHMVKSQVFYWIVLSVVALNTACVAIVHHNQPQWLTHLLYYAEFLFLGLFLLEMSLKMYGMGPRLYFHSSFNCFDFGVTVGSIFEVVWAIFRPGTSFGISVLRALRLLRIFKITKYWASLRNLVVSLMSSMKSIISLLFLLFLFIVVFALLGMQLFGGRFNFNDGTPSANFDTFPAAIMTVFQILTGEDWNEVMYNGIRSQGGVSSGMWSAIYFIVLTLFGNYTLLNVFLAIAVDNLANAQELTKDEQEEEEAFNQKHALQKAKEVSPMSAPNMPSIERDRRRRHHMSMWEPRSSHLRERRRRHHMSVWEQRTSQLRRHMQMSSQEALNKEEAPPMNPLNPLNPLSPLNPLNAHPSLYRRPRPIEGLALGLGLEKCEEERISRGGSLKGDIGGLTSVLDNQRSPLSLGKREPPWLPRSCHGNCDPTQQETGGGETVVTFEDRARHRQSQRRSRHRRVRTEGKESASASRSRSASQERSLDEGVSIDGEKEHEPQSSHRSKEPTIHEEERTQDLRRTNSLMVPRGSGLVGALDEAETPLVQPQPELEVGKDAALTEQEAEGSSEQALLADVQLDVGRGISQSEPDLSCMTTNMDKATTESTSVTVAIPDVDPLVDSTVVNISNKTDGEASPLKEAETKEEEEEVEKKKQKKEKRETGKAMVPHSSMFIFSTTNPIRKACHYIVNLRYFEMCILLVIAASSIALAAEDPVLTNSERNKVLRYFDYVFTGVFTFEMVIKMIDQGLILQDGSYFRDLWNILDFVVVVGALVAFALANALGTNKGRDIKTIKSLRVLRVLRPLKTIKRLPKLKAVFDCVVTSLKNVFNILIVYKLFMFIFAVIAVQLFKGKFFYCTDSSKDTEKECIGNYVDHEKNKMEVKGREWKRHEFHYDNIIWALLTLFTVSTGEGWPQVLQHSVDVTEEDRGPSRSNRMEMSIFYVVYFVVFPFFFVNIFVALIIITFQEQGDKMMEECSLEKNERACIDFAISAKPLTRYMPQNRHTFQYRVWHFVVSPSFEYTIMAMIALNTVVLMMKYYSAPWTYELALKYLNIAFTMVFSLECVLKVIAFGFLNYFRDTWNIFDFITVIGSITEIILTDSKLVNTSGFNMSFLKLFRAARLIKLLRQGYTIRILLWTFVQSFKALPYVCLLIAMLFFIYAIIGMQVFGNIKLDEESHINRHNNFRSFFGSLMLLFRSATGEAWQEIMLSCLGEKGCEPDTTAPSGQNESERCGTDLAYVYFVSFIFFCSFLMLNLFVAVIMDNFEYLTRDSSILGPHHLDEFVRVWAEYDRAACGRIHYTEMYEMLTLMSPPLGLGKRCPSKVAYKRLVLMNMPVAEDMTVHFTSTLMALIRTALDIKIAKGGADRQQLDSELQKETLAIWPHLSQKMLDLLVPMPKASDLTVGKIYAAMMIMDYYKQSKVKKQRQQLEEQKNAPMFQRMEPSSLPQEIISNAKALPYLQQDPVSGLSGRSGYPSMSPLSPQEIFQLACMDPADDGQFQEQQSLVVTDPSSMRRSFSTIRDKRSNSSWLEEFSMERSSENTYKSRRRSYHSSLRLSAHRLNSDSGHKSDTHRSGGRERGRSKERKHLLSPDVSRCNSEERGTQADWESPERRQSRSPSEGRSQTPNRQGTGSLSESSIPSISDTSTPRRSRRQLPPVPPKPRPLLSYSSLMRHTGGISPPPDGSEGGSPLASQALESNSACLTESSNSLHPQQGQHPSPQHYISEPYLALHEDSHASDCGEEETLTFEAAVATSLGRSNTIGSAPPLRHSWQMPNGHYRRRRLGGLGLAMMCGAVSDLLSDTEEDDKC
T1 sequence (P54290 25-1091 partner): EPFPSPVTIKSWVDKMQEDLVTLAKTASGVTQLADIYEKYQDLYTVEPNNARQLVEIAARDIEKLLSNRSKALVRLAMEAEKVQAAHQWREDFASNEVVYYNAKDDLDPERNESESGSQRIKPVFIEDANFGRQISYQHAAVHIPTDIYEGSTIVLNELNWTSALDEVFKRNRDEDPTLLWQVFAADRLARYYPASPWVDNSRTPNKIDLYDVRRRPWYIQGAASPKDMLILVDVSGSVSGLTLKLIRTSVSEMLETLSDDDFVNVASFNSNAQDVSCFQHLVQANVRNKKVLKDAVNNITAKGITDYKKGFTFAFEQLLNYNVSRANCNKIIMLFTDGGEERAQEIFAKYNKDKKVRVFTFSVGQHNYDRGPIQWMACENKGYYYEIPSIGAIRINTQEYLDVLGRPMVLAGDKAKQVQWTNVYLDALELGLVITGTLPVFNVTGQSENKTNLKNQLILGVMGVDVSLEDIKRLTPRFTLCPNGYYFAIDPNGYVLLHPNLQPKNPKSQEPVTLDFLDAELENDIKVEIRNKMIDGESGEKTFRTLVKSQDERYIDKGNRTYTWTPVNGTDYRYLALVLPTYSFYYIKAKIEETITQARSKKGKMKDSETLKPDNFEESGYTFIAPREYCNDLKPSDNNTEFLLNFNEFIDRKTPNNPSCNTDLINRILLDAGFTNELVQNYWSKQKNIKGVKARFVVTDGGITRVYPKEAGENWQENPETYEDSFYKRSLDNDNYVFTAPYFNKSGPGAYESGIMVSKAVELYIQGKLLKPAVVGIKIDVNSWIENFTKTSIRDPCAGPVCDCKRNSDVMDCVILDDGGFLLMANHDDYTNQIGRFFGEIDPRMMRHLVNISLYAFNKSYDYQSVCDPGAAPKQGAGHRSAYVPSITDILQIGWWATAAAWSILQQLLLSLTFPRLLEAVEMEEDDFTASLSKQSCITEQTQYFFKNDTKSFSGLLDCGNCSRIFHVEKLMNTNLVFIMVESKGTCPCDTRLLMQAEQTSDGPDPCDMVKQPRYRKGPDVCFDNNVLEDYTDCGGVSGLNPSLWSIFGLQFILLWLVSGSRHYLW
T1 sequence (P54287 whole entry partner): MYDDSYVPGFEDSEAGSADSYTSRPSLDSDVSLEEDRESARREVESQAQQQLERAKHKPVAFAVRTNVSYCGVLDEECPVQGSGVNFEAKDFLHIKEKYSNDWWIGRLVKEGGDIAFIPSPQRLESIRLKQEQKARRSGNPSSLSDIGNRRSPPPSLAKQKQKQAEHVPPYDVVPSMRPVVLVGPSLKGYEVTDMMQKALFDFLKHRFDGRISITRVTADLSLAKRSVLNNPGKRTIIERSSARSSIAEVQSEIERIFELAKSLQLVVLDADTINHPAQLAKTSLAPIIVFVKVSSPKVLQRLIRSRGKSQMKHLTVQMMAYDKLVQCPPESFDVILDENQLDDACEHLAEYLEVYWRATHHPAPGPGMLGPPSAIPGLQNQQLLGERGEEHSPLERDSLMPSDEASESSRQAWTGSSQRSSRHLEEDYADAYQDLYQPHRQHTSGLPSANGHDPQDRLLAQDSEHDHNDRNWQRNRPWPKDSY
Procedure: (§1) Recordings were obtained from acutely dissociated DRG neurons as described earlier (Bellampalli et al., 2019). Patch-clamp recordings were performed at room temperature (22-24° C.). Currents were recorded using an EPC 10 Amplifier-HEKA (HEKA Elektronik, Ludwigshafen, Germany) linked to a computer with Patchmaster software. DRG neurons were incubated overnight (˜16-24 hours) with 20 μM of CBD3063.
For total calcium current (ICa^2+) recordings, the external solution consisted of the following (in mM): 110 N-methyl-D-glucamine, 10 BaCl2, 30 TEA-Cl, 10 HEPES, 10 glucose, and 0.001 TTX (pH 7.29 adjusted with TEA-OH, and mOsm/L=310). Patch pipettes were filled with an internal solution containing (in mM): 150 CsCl2, 10 HEPES, 5 Mg-ATP, and 5 BAPTA, (pH 7.2 adjusted with CsOH, and mOsm/L-305). Peak Ca^2+ current was acquired by applying 200-millisecond voltage steps from −70 to +60 mV in 10-mV increments from a holding potential of −90 mV to obtain the current-voltage (I-V) relation. To measure the different subtypes of Ca^2+ channels, DRGs were treated with a Cav inhibitor cocktail omitting the inhibitor specific to the subtype being tested (e.g., to measure Cav2.2 currents, ω-conotoxin GVIA is omitted): Nifedipine (10 μM, L-type), ω-Conotoxin-GVIA (500 nM, […]) (Feng, et al., 2001), SNX482 (200 nM, R-type) (Newcomb et al., 1998), ω-agatoxin (200 nM, P/Q-type) (Mintz et al., 1992), TTA-P2 (1 μM, T-type) (Choe et al., 2011).
Normalization of currents to each cell's capacitance (pF) was performed to allow for collection of current density data. For I-V curves, functions were fitted to data using a non-linear least squares analysis. I-V curves were fitted using double Boltzmann functions:
where x is the pre-pulse potential, V1/2 is the mid-point potential, and k is the corresponding slope factor for single Boltzmann functions. Double Boltzmann fits were used to describe the shape of the curve, not to imply the existence of separate channel populations. Numbers 1 and 2 simply indicate first and second mid-points; a along with g are fitting parameters.
Activation curves were obtained from the I-V curves by dividing the peak current at each depolarizing step by the driving force according to the equation: G=I/(Vmem-Erev), where I is the peak current, Vmem is the membrane potential and Erev is the reversal potential. The conductance (G) was normalized against the maximum conductance (Gmax). For total and the different subtypes of Ca^2+ currents, steady-state inactivation (SSI) curves were obtained by applying an H-infinity protocol that consisted of 1.5-seconds conditioning pre-pulses from −100 to +30 mV in 10-mV increments followed by a 20-millisecond test pulse to +10 mV. For Na^+ currents, SSI curves were obtained by applying an H-infinity protocol that consisted of 1-second conditioning pre-pulses from −120 to +10 mV in 10-mV increments followed by a 200-millisecond test pulse to +10 mV. Inactivation curves were obtained by dividing the peak current recorded at the test pulse by the maximum current (Imax). Activation and SSI curves were fitted with the Boltzmann equation.

[2] = test system: voltage-gated potassium channels; assay: Whole-cell patch-clamp, total potassium currents in DRG neurons; format: cell-based, rat; conditions: 20 μM (DMSO: 420.9±54.19)
Procedure: as §1
To isolate potassium currents (IK+), DRG neurons were bathed in external solution composed of (in millimolar): 140 N-methyl-glucamine chloride, 5 KCl, 1 MgCl2, 2 CaCl2, 10 D-glucose, and 10 HEPES (pH adjusted to 7.3 with KOH and mOsm/L=313). Recording pipettes were filled with internal solution containing (in mM): 140 KCl, 2.5 MgCl2, 4 Mg-ATP, 0.3 Na-GTP, 2.5 CaCl2), 5 EGTA, and 10 HEPES (pH adjusted to 7.3 with KOH and mOsm/L=320). From a holding potential of −60 mV, IK activation was determined by applying 300-millisecond voltage steps from −80 to +60 mV in 10-mV increments.
Normalization of currents to each cell's capacitance (pF) was performed to allow for collection of current density data. For I-V curves, functions were fitted to data using a non-linear least squares analysis. I-V curves were fitted using double Boltzmann functions: […]

rat DRG sensory neurons = assay: Whole-cell current-clamp, excitability of DRG sensory neurons; format: cell-based; parameters: rheobase: unit not given here
Procedure: Cav2.2 channels have critical roles in controlling the excitability of DRG neurons, according to earlier studies (Yang et al., 2018). Since Cav2.2 populations are affected by CBD3063, the ability of CBD3063 to alter the excitability of DRG sensory neurons was investigated (FIGS. 7A-D). Action potentials (AP) were elicited in rat sensory neurons during whole cell current-clamp tests in response to current injections from 0-120 pA after overnight incubation with 0.1% DMSO or 20 μM CBD3063.

[3] = 20 μM overnight, mean ± SEM (n cells)

effect on Ca2+ influx through Cav2.3 (R-type) channels (current density-voltage curve, peak current density) ([1]; 20 μM overnight vs 0.1% DMSO): does not alter | R-type Ca2+ currents, activation V1/2 [1, 3]: −4.098 ± 0.693 (11) mV | R-type Ca2+ currents, activation k (slope factor) [1, 3]: 7.244 ± 0.579 (11) | R-type Ca2+ currents, inactivation V1/2 [1, 3]: −16.840 ± 2.186 (11) mV | R-type Ca2+ currents, inactivation k (slope factor) [1, 3]: −11.870 ± 1.850 (11)
SMILES: CC(=O)N[C@@H]1CCCN(C(=O)NCCCNc2ccccn2)C1 [CBD3063, (3R)-3-acetamido-N-[3-(pyridin-2-ylamino)propyl]piperidine-1-carboxamide]
peak potassium current density [2]: 422.1±52.70 pA/pF | rheobase (rat DRG sensory neurons; 20 μM overnight (DMSO: 15.00±3.416)): 48.33±9.098 | resting membrane potential (rat DRG sensory neurons; 20 μM overnight (DMSO: −44.50±1.478)): −50.00±1.915 mV | number of evoked action potentials (rat DRG sensory neurons; 20 μM overnight, current injection steps 10 to 120 pA): reduced the number of evoked APs
